# Results reported in US7858788B2, “Bicyclic carbamoylpyridone derivative having HIV integrase inhibitory activity” (Shionogi & Co., Ltd., priority 2005, dated 2010).
# Target: HIV integrase (Human immunodeficiency virus type 1 group M subtype B, UniProt P04585)
# Test: HIV integrase inhibitory activity assay (immunoplate, substrate DNA / target DNA, OD405)
# Format: biochemical
# Details: read-out: Integrase inhibitory activity (IC50, ng/ml) (converted)
# Procedure: The HIV integrase inhibitory activity was investigated based on the following assay method.
# (1) Preparation of DNA Solution
# By the same method as that described in Experimental Example 1 of WO 2004/024693, a substrate DNA solution (2 pmol/ml) and a target DNA solution (5 pmol/ml) were prepared. […] Each sequence of a substrate DNA and a target DNA is as described in the same Experimental Example.
# (2) Measurement of Inhibition Rate (IC50 Value)
# Streptavidin (manufactured by Vector Laboratories) was dissolved in a 0.1M carbonate buffer solution (composition: 90 mM Na2CO3, 10 mM NaHCO3) to a concentration of 40 μg/ml. Each […] of this solution was added to a well of an immunoplate (manufactured by NUNC), and this is allowed to stand at 4° C. overnight to adsorb. Then, each well was washed with a phosphate buffer (composition: 13.7 mM NaCl, 0.27 mM KCl, 0.43 mM Na2HPO4, 0.14 mM KH2PO4) two times, and […] of a phosphate buffer containing 1% skim milk was added to block it for 30 minutes. Further, each well was washed with a phosphate buffer two times, […] of a substrate DNA solution (2 pmol/ml) was added to adsorb at room temperature for 30 minutes while shaking, and this was washed with a phosphate buffer two times and, then, distilled water once.
# Then, to each well prepared as described above were added 12 ml of a buffer (composition: 150 mM MOPS (pH7.2), 75 mM MnCl2, 50 mM 2-mercaptoethanol, 25% glycerol, 500 μg/ml bovine serum albumin-fraction V), and 51 ml of a reaction solution prepared from […] of distilled water. Then, 9 ml of an integrase solution (30 pmol) was added, and the mixture was mixed well. To a well as a negative control (NC) was added 9 ml of a diluting solution (composition: 20 mM MOPS (pH7.2), 400 mM potassium glutamete, 1 mM EDTA, 0.1% NP-40, 20% glycerol, 1 mM DTT, 4 M urea), and this was mixed well using a plate mixer. […]
# C abs.; absorbance of well of compound
# NC abs.: absorbance of NC
# PC abs.: absorbance of PC
row,SMILES,IC50 [nM]
1,"COCCN1C(=O)c2c(O)c(=O)c(C(=O)NCc3ccc(F)cc3COC)cn2CC1O (stereo not drawn) [Example E-1, 3,9-Dihydroxy-2-(2-methoxy-ethyl)-1,8-dioxo-1,3,4,8-tetrahydro-2H-pyrid[1,2-a]pyrazine-7-carboxylic acid 4-fluoro-2-methoxymethyl-benzylamide]",11.1
2,"O=C(NCc1ccc(F)cc1)c1cn2ccn(Cc3ccc(F)cc3)c(=O)c2c(O)c1=O [Example A-30, 2-(4-Fluorobenzyl)-9-hydroxy-1,8-dioxo-1,8-dihydro-2H-pyrid[1,2-a]pyrazine-7-carboxylic acid 4-fluoro-benzylamide]",2.29
3,"COCCN1CC(O)n2cc(C(=O)NCc3ccc(F)cc3)c(=O)c(O)c2C1=O [Example D-41, 4,9-Dihydroxy-2-(2-methoxy-ethyl)-1,8-dioxo-1,3,4,8-tetrahydro-2H-pyrid[1,2-a]pyrazine-7-carboxylic acid 4-fluoro-benzylamide]",7.89
